Data on seven molecules can be found in patent publication US20080152714A1, “Pharmaceutical Formulations” (priority 2005, published 2008).

A short description of data set [1]: Intrinsic dissolution rate (IDR). The data set is classed as physicochemical. To be noted: pH 6.8, 50 mM sodium citrate buffer, 37° C.
Procedure: The intrinsic dissolution rate is the rate of dissolution of pharmaceutically acceptable ingredients when conditions such as surface area, agitation or stirring speed, pH and ionic strength of the dissolution medium are held constant.
Pellets of the salts were prepared by compressing ca. 100 mg of the compound in a stainless steel die under 1300 pounds force with a dwell time of one minute. The die containing the tablet was submerged in 400 mL of the dissolution medium at 37° C. The solution was stirred by a paddle at ˜60 rpm. At each time point, 3 mL of sample was withdrawn and filtered. After discarding the first half of the filtrate, the remainder was collected and assayed by HPLC method above. The total volume of the dissolution medium was kept at a constant by replenishing the lost volume at each data point with fresh buffer at 37 C.
Data set [2] in a line: Solubility of fenofibric acid salts in water at 25° C. The data set is classed as physicochemical. Here is the method: Solubility Determination: Solubility values of fenofibric acid salts in water were determined at 25° C. The salts were weighed into glass vials and water was added. The suspensions were rotated from end to end for about 2 days in a 25° C. water bath. The pH of the suspensions was measured. The residual solid was then removed via filtration through a 0.45 μm PTFE membrane filter. The resulting saturated solution was diluted appropriately into the HPLC mobile phase, and analyzed by the HPLC assay described below (Table 3). The powder x-ray diffraction pattern of the collected residual solid was recorded at the end of experiment.

Read-outs that look alike come from different tables or passages of the source.

In data set [1], `C[N+](C)(C)CCO` [Choline] came in with an IDR of 14.50 mg/min/cm^2. The solubility – broadly, the dissolved amount per volume that the medium holds – in data set [2] (read-out: Solubility) was above 300000 µg/mL.
Turning to Calcium, in data set [1], the IDR is 0.10 mg/min/cm^2.
The molecule `CCN(CC)CCOC(=O)c1ccc(N)cc1` [Procaine] gave an IDR in data set [1] of 1.06 mg/min/cm^2. Further, the solubility in data set [2] (read-out: Solubility) was found to be 7200 µg/mL.
In data set [1], `CC(C)(Oc1ccc(C(=O)c2ccc(Cl)cc2)cc1)C(=O)O` [Free acid, 2-[4-(4-chlorobenzoyl)phenoxy]-2-methyl-propanoic acid, reference compound] came in with an IDR of 0.30 mg/min/cm^2. Further, in data set [2] (read-out: Solubility), the solubility was 265 µg/mL.
In data set [1], `NCCO` [Ethanolamine] gave an IDR of 8.05 mg/min/cm^2.
On to `CN(C)C(=N)N=C(N)N` [Metformin], for which the IDR in data set [1] is 7.09 mg/min/cm^2.
The molecule Tris registered an IDR in data set [1] of 0.67 mg/min/cm^2. In addition, in data set [2], the solubility was determined as 5450 µg/mL.
